Experimental data as given in patent US6525001B1, “Substituted pyrimidine and pyridine herbicides” (Mid-American Commercialization Corporation, priority 1997, dated 2003).

Key:
Format in all cases: in vivo
[1] = tested on: bedstraw (Galium aparine); test: Test B pre-/postemergence; design: key: 0 is no effect; 10 is complete control; conditions: for Bedstraw plant response rating: Preemergence
Outline: (§1)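 Seeds were planted and sprayed preemergence, while plants at 2 to 18 cm (1- to 4-leaf stage) were sprayed postemergence at the same time, with test chemical in a non-phytotoxic solvent mixture containing surfactant. After twelve to sixteen days in a greenhouse, injury was rated visually against untreated controls on a 0–10 scale.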

[2] = tested on: wheat (Triticum aestivum); test: Test B pre-/postemergence; design: key: 0 is no effect; 10 is complete control
Outline: as §1

[3] = tested on: giant foxtail (Setaria faberii); test: Test B pre-/postemergence; design: key: 0 is no effect; 10 is complete control
Outline: as §1

corn (Zea mays) = test: Test B pre-/postemergence; design: key: 0 is no effect; 10 is complete control; conditions: for Corn plant response rating: Preemergence
Outline: as §1

[4] = tested on: cocklebur (Xanthium strumarium); test: Test B pre-/postemergence; design: key: 0 is no effect; 10 is complete control; conditions: for Cocklebur plant response rating: Preemergence
Outline: as §1

[5] = tested on: crabgrass (Digitaria sanguinalis); test: Test B pre-/postemergence; design: key: 0 is no effect; 10 is complete control; conditions: for Crabgrass plant response rating: Preemergence
Outline: as §1

[6] = tested on: momingglory (Ipomoea hederacea); test: Test B pre-/postemergence; design: key: 0 is no effect; 10 is complete control
Outline: as §1

[7] = tested on: sugar beet (Beta vulgaris); test: Test B pre-/postemergence; design: key: 0 is no effect; 10 is complete control
Outline: as §1

[8] = tested on: blackgrass (Alopecurus myosuroides); test: Test B pre-/postemergence; design: key: 0 is no effect; 10 is complete control; conditions: for Blackgrass plant response rating: Preemergence
Outline: as §1

soybean (Glycine max) = test: Test B pre-/postemergence; design: key: 0 is no effect; 10 is complete control
Outline: as §1

[9] = tested on: velvetleaf (Abutilon theophrasti); test: Test B pre-/postemergence; design: key: 0 is no effect; 10 is complete control
Outline: as §1

rape (Brassica napus) = test: Test B pre-/postemergence; design: key: 0 is no effect; 10 is complete control
Outline: as §1

[10] = tested on: broadleaf signalgrass (Brachiaria decumbens); test: Test B pre-/postemergence; design: key: 0 is no effect; 10 is complete control; conditions: for B. signalgrass plant response rating: Preemergence
Outline: as §1

[11] = tested on: purple nutsedge (Cyperus rotundus); test: Test B pre-/postemergence; design: key: 0 is no effect; 10 is complete control
Outline: as §1

[12] = tested on: pigweed (Amaranthus retroflexus); test: Test B pre-/postemergence; design: key: 0 is no effect; 10 is complete control
Outline: as §1

wild oat (Avena fatua) = test: Test B pre-/postemergence; design: key: 0 is no effect; 10 is complete control
Outline: as §1

[13] = tested on: bamyardgrass (Echinochloa crus-galli); test: Test B flood test
Outline: (§2)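 Plants were grown to the 2-leaf stage before treatment with test chemical, then held in a greenhouse for twelve to sixteen days. Injury was visually rated against untreated controls on a 0–10 scale, where 0 is no effect and 10 is complete control.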

rice (Oryza sativa) = test: Test B flood test
Outline: as §2

[14] = tested on: duck salad (Heteranthera limosa); test: Test B flood test
Outline: as §2

[15] = tested on: smallflower flatsedge (Cyperus difformis); test: Test B flood test
Outline: as §2

[16] = Rate 250 g/ha, Postemergence (so in the source)
[17] = Rate 62 g/ha, Postemergence (flood test)
[18] = Rate 125 g/ha, Postemergence, flood test
[19] = Rate 250 g/ha, Postemergence (flood test species)
[20] = Rate 125 g/ha, Postemergence section (flood test species)

Compound: Cc1cnc(-c2ccc(C#N)cc2)nc1Cc1cccc(C(F)(F)F)c1 [Compound 30]
- Plant response rating, Bedstraw ([1]; Rate 62 g/ha, Postemergence): 1
- Bedstraw plant response rating ([1]; Rate 62 g/ha): 3
- Plant response rating, Bedstraw ([1]; Rate 125 g/ha, Postemergence): 6
- Bedstraw plant response rating ([1]; Rate 125 g/ha): 10
- Plant response rating, Bedstraw ([1]; Rate 250 g/ha, Postemergence): 6
- Plant response rating, Bedstraw [1, 16]: 10
- Wheat plant response rating ([2]; Rate 62 g/ha, Postemergence): 1
- Wheat plant response rating ([2]; Rate 62 g/ha, Preemergence): 0
- Wheat plant response rating ([2]; Rate 125 g/ha, Postemergence): 2
- Plant response rating, Wheat ([2]; Rate 125 g/ha, Preemergence): 0
- Plant response rating, Wheat ([2]; Rate 250 g/ha, Postemergence): 2
- Plant response rating, Wheat [2, 16]: 0
- Plant response rating, Giant foxtail ([3]; Rate 62 g/ha, Postemergence): 1
- Giant foxtail plant response rating ([3]; Rate 62 g/ha, Preemergence): 1
- Giant foxtail plant response rating ([3]; Rate 125 g/ha, Postemergence): 1
- Giant foxtail plant response rating ([3]; Rate 125 g/ha, Preemergence): 5
- Plant response rating, Giant foxtail ([3]; Rate 250 g/ha, Postemergence): 2
- Plant response rating, Giant foxtail [3, 16]: 9
- Plant response rating, Corn (corn (Zea mays); Rate 62 g/ha, Postemergence): 1
- Corn plant response rating (corn (Zea mays); Rate 62 g/ha): 0
- Plant response rating, Corn (corn (Zea mays); Rate 125 g/ha, Postemergence): 2
- Corn plant response rating (corn (Zea mays); Rate 125 g/ha): 0
- Plant response rating, Corn (corn (Zea mays); Rate 250 g/ha, Postemergence): 2
- Plant response rating, Corn (corn (Zea mays); [16]): 0
- Plant response rating, Cocklebur ([4]; Rate 62 g/ha, Postemergence): 5
- Cocklebur plant response rating ([4]; Rate 62 g/ha): 0
- Plant response rating, Cocklebur ([4]; Rate 125 g/ha, Postemergence): 8
- Cocklebur plant response rating ([4]; Rate 125 g/ha): 0
- Plant response rating, Cocklebur ([4]; Rate 250 g/ha, Postemergence): 8
- Plant response rating, Cocklebur [4, 16]: 0
- Plant response rating, Crabgrass ([5]; Rate 62 g/ha, Postemergence): 1
- Crabgrass plant response rating ([5]; Rate 62 g/ha): 1
- Plant response rating, Crabgrass ([5]; Rate 125 g/ha, Postemergence): 1
- Crabgrass plant response rating ([5]; Rate 125 g/ha): 3
- Plant response rating, Crabgrass ([5]; Rate 250 g/ha, Postemergence): 7
- Plant response rating, Crabgrass [5, 16]: 8
- Plant response rating, Morningglory ([6]; Rate 62 g/ha, Postemergence): 2
- Morningglory plant response rating ([6]; Rate 62 g/ha, Preemergence): 1
- Morningglory plant response rating ([6]; Rate 125 g/ha, Postemergence): 5
- Morningglory plant response rating ([6]; Rate 125 g/ha, Preemergence): 1
- Plant response rating, Morningglory ([6]; Rate 250 g/ha, Postemergence): 9
- Plant response rating, Morningglory [6, 16]: 3
- Plant response rating, Sugarbeets ([7]; Rate 62 g/ha, Postemergence): 10
- Sugarbeets plant response rating ([7]; Rate 62 g/ha, Preemergence): 6
- Sugarbeets plant response rating ([7]; Rate 125 g/ha, Postemergence): 10
- Plant response rating, Sugarbeets ([7]; Rate 125 g/ha, Preemergence): 9
- Plant response rating, Sugarbeets ([7]; Rate 250 g/ha, Postemergence): 10
- Plant response rating, Sugarbeets [7, 16]: 10
- Plant response rating, Blackgrass ([8]; Rate 62 g/ha, Postemergence): 0
- Blackgrass plant response rating ([8]; Rate 62 g/ha): 0
- Plant response rating, Blackgrass ([8]; Rate 125 g/ha, Postemergence): 1
- Blackgrass plant response rating ([8]; Rate 125 g/ha): 2
- Plant response rating, Blackgrass ([8]; Rate 250 g/ha, Postemergence): 1
- Plant response rating, Blackgrass [8, 16]: 2
- Plant response rating, Soybean (soybean (Glycine max); Rate 62 g/ha, Postemergence): 3
- Soybean plant response rating (soybean (Glycine max); Rate 62 g/ha, Preemergence): 0
- Soybean plant response rating (soybean (Glycine max); Rate 125 g/ha, Postemergence): 3
- Plant response rating, Soybean (soybean (Glycine max); Rate 125 g/ha, Preemergence): 0
- Plant response rating, Soybean (soybean (Glycine max); Rate 250 g/ha, Postemergence): 6
- Plant response rating, Soybean (soybean (Glycine max); [16]): 0
- Plant response rating, Velvetleaf ([9]; Rate 62 g/ha, Postemergence): 5
- Velvetleaf plant response rating ([9]; Rate 62 g/ha, Preemergence): 1
- Velvetleaf plant response rating ([9]; Rate 125 g/ha, Postemergence): 6
- Plant response rating, Velvetleaf ([9]; Rate 125 g/ha, Preemergence): 2
- Plant response rating, Velvetleaf ([9]; Rate 250 g/ha, Postemergence): 8
- Plant response rating, Velvetleaf [9, 16]: 6
- Plant response rating, Rape (rape (Brassica napus); Rate 62 g/ha, Postemergence): 4
- Rape plant response rating (rape (Brassica napus); Rate 62 g/ha, Preemergence): 0
- Rape plant response rating (rape (Brassica napus); Rate 125 g/ha, Postemergence): 8
- Rape plant response rating (rape (Brassica napus); Rate 125 g/ha, Preemergence): 2
- Plant response rating, Rape (rape (Brassica napus); Rate 250 g/ha, Postemergence): 10
- Plant response rating, Rape (rape (Brassica napus); [16]): 3
- Plant response rating, B. signalgrass ([10]; Rate 62 g/ha, Postemergence): 1
- B. signalgrass plant response rating ([10]; Rate 62 g/ha): 1
- Plant response rating, B. signalgrass ([10]; Rate 125 g/ha, Postemergence): 2
- B. signalgrass plant response rating ([10]; Rate 125 g/ha): 4
- Plant response rating, B. signalgrass ([10]; Rate 250 g/ha, Postemergence): 2
- Plant response rating, B. signalgrass ([10]; Rate 250 g/ha, Postemergence as printed in head r139 (second section for compounds 26-50)): 6
- Plant response rating, Nutsedge ([11]; Rate 62 g/ha, Postemergence): 0
- Nutsedge plant response rating ([11]; Rate 62 g/ha, Preemergence): 0
- Nutsedge plant response rating ([11]; Rate 125 g/ha, Postemergence): 0
- Nutsedge plant response rating ([11]; Rate 125 g/ha, Preemergence): 0
- Plant response rating, Nutsedge ([11]; Rate 250 g/ha, Postemergence): 2
- Plant response rating, Nutsedge [11, 16]: 0
- Plant response rating, Redroot pigweed ([12]; Rate 62 g/ha, Postemergence): 7
- Redroot pigweed plant response rating ([12]; Rate 62 g/ha, Preemergence): 2
- Redroot pigweed plant response rating ([12]; Rate 125 g/ha, Postemergence): 9
- Redroot pigweed plant response rating ([12]; Rate 125 g/ha, Preemergence): 7
- Plant response rating, Redroot pigweed ([12]; Rate 250 g/ha, Postemergence): 9
- Plant response rating, Redroot pigweed [12, 16]: 10
- Wild oats plant response rating (wild oat (Avena fatua); Rate 62 g/ha, Postemergence): 1
- Wild oats plant response rating (wild oat (Avena fatua); Rate 62 g/ha, Preemergence): 1
- Wild oats plant response rating (wild oat (Avena fatua); Rate 125 g/ha, Postemergence): 2
- Plant response rating, Wild oats (wild oat (Avena fatua); Rate 125 g/ha, Preemergence): 1
- Plant response rating, Wild oats (wild oat (Avena fatua); Rate 250 g/ha, Postemergence): 2
- Plant response rating, Wild oats (wild oat (Avena fatua); [16]): 2
- Plant response rating, Barnyardgrass [13, 17]: 3
- Plant response rating, Barnyardgrass [13, 18]: 3
- Plant response rating, Barnyardgrass [13, 19]: 4
- Plant response rating, Rice (rice (Oryza sativa); [17]): 1
- Rice plant response rating (rice (Oryza sativa); [20]): 1
- Plant response rating, Rice (rice (Oryza sativa); [19]): 2
- Plant response rating, Ducksalad [14, 17]: 3
- Plant response rating, Ducksalad [14, 18]: 4
- Plant response rating, Ducksalad [14, 19]: 5
- Plant response rating, S. Flatsedge [15, 17]: 4
- S. Flatsedge plant response rating [15, 20]: 6
- Plant response rating, S. Flatsedge [15, 19]: 8
